Experiments:
melanoma cell line LOX = experiment: Cell survival assay (crystal violet); type: cell-based, human; conditions: 100 μM, 3 days
Protocol: (§1) Typically, the small molecule compounds of the present invention were dissolved in DMSO at a concentration of 30 mM. The small molecule compounds were then tested under cell culture conditions at different concentrations ranging from 0, 10, 30, 50, to 100 uM. To determine cell survival after treatment, the cells were incubated with the small molecule compounds in 6-well plates for about 3 days. After removal of the cell culture medium, 1-ml of 0.5% crystal violet solution (prepared in 20% ethanol and 20% methanol) was added to stain the cells for 5 min. Then the crystal violet solution was rinsed clean with tap water. Cell survival was estimated based on the density of crystal stained plates.
The effect of small molecule compounds FN1-5, FN1-8, FN1-7, FN1-9U, and FN1-9S was tested using a cytotoxicity assay and the melanoma cell line LOX. LOX cells were plated in 6-well plates and incubated with 100 μM of each compound (stocks were dissolved in DMSO at 30 mM) for 3 days, as described herein. […] Live cells were stained by 0.5% crystal violet.
Cell killing was also tested using human melanoma cell line LOX and different doses of the small molecule compounds FN1-5 and FN1-8. LOX cells were plated in 6-well plates and incubated with 10, 30, and 50 μM of each compound for 3 days, as described herein.

H1299 and A549 cells = experiment: Cytotoxicity and apoptosis assays; type: cell-based, human; conditions: 10, 30, 50, and 100 μM; data not shown
Protocol: as §1
(§2) Apoptosis was analyzed by using an Annexin V FITC Apoptosis Detection Kit (Biosource, Camarillo, Calif.), according to the manufacturer's protocol. After treatment with different small molecule compounds at various concentrations for about 3 days, cells were harvested by trypsinization, stained and immediately analyzed by flow cytometry (FACScan; Decton Dickinson, Franklin Lake, N.J.). Early apoptotic cells with exposed phosphatidylserine but intact cell membranes will bind to Annexin V-FITC, but not propidium iodide (PI). Cells in necrotic or late apoptotic stages will be labeled with both Annexin V-FITC and PI. […]

[1] = system: colon cancer cell lines SW480 and HCT116; experiment: Cytotoxicity and apoptosis assays; type: cell-based, human; conditions: 10, 30, 50, and 100 μM; data not shown
Protocol: as §1, §2

[2] = system: mesothelioma cell line MS-1; experiment: Cytotoxicity and apoptosis assays; type: cell-based, human; conditions: 10, 30, 50, and 100 μM (FN1-9U effect at 100 μM)
Protocol: as §1, §2

[3] = system: human SOCS3 promoter in NSCLC cell line A549; experiment: SOCS3 promoter-luciferase reporter assay; type: cell-based; conditions: A549, 30 μM, 18-24 hours
Protocol: One day before transfection, cells (1×10^5) were plated in 12-well plates with growth medium without antibiotics. When cells reached 80-90% of confluence they were co-transfected using 0.5 μg of each promoter construct in pGL3Basic vector and 0.025 μg pRL-TK Vector (Promega; Madison, Wis.) containing Renilla Luciferase as an internal control for the transformation efficiency. Lipofectamine 2000™ (Invitrogen Life Technologies) was used to mediate transfection for about 6 hours. Then the medium was replaced with fresh medium containing various small molecule compounds at a concentration of 30 μM, and the resulting cells were cultured for an additional 18-24 hours and subjected to luciferase assay. Briefly, cells were lysed in a lysis buffer and Firefly and Renilla Luciferase activities in cells of each well, were measured using Dual-Luciferase Assay System (Promega) and an illuminometer. The measured luciferase activities were normalized to pRL-TK Vector activity and were given relative to the basal activity of empty pGL3-Basic Vector, which was set to unity. The data shown represent mean values (±S.D.). All measurements were performed in triplicate and repeated in at least three independent experiments. The human Wnt-2 promoter-luciferase construct, the human SOCS3 promoter-Luciferase construct and the human Gremlin promoter-luciferase construct were cloned and characterized in the laboratory of Dr. Jablons at the University of California, San Francisco (San Francisco, Calif.; He et al., Biochem Biophy Res Comm, 2003; and unpublished data). The 6GLI-TKO-luciferase construct (containing 6 repeats of consensus GLI DNA binding sequence) was kindly provided by Dr. Matthias Hebrok's laboratory at the University of California, San Francisco (San Francisco, Calif.).
As a third specificity test for the small molecule compounds of the present invention, the ability of these compounds to regulate the expression of genes that are not down-stream targets of the Gli activation was analyzed. SOCS3, an inhibitor and down-stream target gene of JAK/STAT pathway was chosen for this experiment. Expression of SOCS3 is not under control of Gli and/or Wnt activation. Furthermore, no GLI and TCF binding sites were found in the human SOCS3 promoter cloned in the laboratory of Dr. Jablons (University of California, San Francisco; data not shown). Thus, SOCS3 promoter-luciferase reporter activity was measured after the treatment of the NSCLC cell line A549 with small molecule compounds FN1-5, FN1-7, FN1-8, and FN1-9U.

[4] = system: primary cultured human mesothelioma cells; experiment: Cell survival assay (crystal violet); type: cell-based; conditions: 50 and 100 μM, 3 days
Protocol: Fresh cancer tissue and adjacent normal tissue from patients undergoing curative primary resection of their tumors were collected at the time of surgery (IRB approval H8714-15319-040), and immediately snap-frozen in liquid nitrogen. These tissue samples were kept at −170° C. in a liquid nitrogen freezer until further use. Primary tissue cultures were prepared as follows: Fresh cancer tissue was obtained with consent from patients undergoing resection, cut into small pieces (1-2 mm in diameter), and then digested with Collagenase A (Roche Applied Science, Indianapolis, Ind.) at room temperature for 2 hours according to manufacture's protocol. Single cells from the digestion were spun down and the cell pellets were washed twice using RPMI 1640 supplemented with 10% fetal bovine serum, penicillin (100 IU/ml) and streptomycin (100 μg/ml). Then, the cells were resuspended in the same medium and cultured in 6-well plates at 37° C. in a humid incubator with 5% CO2 until they were ready for further treatments.
as §1
Next, the effect of different small molecule compounds on primary cultured human mesothelioma cells freshly made from tissue samples was examined. The primary cultures were plated in 6-well plates as described herein and incubated with 50 and 100 μM of each compound (FN1-5, FN1-7, FN1-8, and FN3-5; stocks were dissolved in DMSO at 30 mM) for 3 days. […] (FIG. 8).

[5] = system: normal human muscle cells; experiment: Cell survival assay (crystal violet); type: cell-based; conditions: 1, 10, 30, and 50 μM, 3 days
Protocol: as §1
The cell killing effect of small molecule compounds FN1-8, FN1-7, and FN1-5 at different doses was examined in normal human muscle cells. […] Normal muscle cells were plated in 6-well plates and incubated with 1, 10, 30, and 50 μM of each compound for 3 days, in the same manner as described herein for similar other experiments. […] Both FN1-5 and FN1-8 seem to be specific in killing cancer cells.

| Compound | cell killing effect (melanoma cell line LOX) | cell killing effect or apoptosis (H1299 and A549 cells) | cell killing effect or apoptosis [1] | cell killing effect or apoptosis [2] | SOCS3 promoter activity [3] | cell killing effect [4] | cell killing effect in normal cells [5] |
| --- | --- | --- | --- | --- | --- | --- | --- |
| O=C(O)CCCCNC(=O)C1C(c2ccccc2)=NN(c2ccccc2)C1c1ccccc1 (stereo not shown) [FN1-9U, 5-(1,3,5-Triphenyl-4,5-dihydro-pyrazole-4-carbonyl)aminopentanoic acid] | Some killing | no noticeable cell killing effect or apoptosis | No dramatic cell killing effect or apoptosis | some cell killing | inactive |  |  |
| O=C(O)CCCCNC(=O)C1C(c2ccccc2)C(c2ccccc2)=NN1c1ccccc1 (stereo not shown) [FN1-9S, 5-(1,3,4-triphenyl-4,5-dihydro-pyrazole-5-carbonyl)aminopentanoic acid] |  | no noticeable cell killing effect or apoptosis | No dramatic cell killing effect or apoptosis | no cell killing effect or apoptosis |  |  |  |
| O=C(NCCCO)C1C(c2ccccc2)=NN(c2ccccc2)C1c1ccccc1 (stereo not shown) [FN1-7, N-(3-Hydroxypropyl)-1,3,5-triphenyl-4,5-dihydro-pyrazole-4-carboxyanide] | Some killing |  |  |  | inactive | No significant cell killing | No noticeable cell killing effect |
| CC(C)CC1=NN(c2ccccc2)C(CC(C)C)C1C(=O)NCCCCCO (stereo not shown) [FN3-5, N-(5-Hydroxypentyl)-1-phenyl-3,5-bis(isobutyl)-4,5-dihydro-pyrazole-4-carboxyamide] |  |  |  |  |  | No significant cell killing |  |

— patent US7714014B2, “Targeting GLI proteins in human cancer by small molecules” (The Regents of the University of California, priority 2005, dated 2010)
